{
  "source": "paper PMC8066339",
  "about": "“Optimization of 2-Acylaminocycloalkylthiophene Derivatives for Activity against Staphylococcus aureus RnpA” (Antibiotics, 2021)",
  "key": {"RNase P (RnpA + rnpB)": {"biological_target": "T1, RNase P (RnpA + rnpB) (Staphylococcus aureus, UniProt P0A0H5)", "T1 construct": "made in house; host or cells: E. coli BL21 (DE3)", "T1 sequence (P0A0H5 1-117)": "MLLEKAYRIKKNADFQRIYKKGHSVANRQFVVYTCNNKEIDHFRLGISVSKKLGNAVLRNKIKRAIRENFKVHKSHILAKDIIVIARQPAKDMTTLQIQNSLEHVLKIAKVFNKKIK", "test": "In vitro ptRNA^Tyr processing assay with reconstituted RNase P", "assay_type": "biochemical", "conditions": "for IC50: in vitro ptRNA^Tyr processing, average of at least two tests, read-out: ptRNA IC50", "protocol": "His-tagged RnpA was purified as previously described. E. coli BL21 (DE3) cells harboring plasmid pEXP5-nt containing a hexahistidine tag fused to the N-terminus of S.aureus RnpA coding region were grown in LB supplemented with 50 µg mL^−1 ampicillin to OD600 = 0.6 and induced with 1mM isopropyl β-D-1-thiogalactopyranoside (IPTG) for three hours to induce protein expression. […] Cells were mechanically lysed by three passes at 18,000 psi through a French Pressure Cell Press (SLM-Aminco; Pittsford, NY, USA) and cell debris was removed by centrifugation at 17,000× g for 10 min at 4 °C. Supernatants were collected, filtered through a 0.2 micron syringe filter, then loaded onto a 5 mL HisPur cobalt column (ThermoFisher Scientific, Waltham, MA, U.S.A.) using the BioRad Maximizer Duo-Flow Medium Pressure Chromatography System. Protein was eluted using an imidazole gradient (80 mM to 500 mM). Fractions were assessed for RnpA presence and purity via SDS-PAGE analysis, Coomassie staining and Western blotting using an anti-His antibody (Invitrogen; Grand Island, NY, USA).\nrnpB and RNA substrates (spa, ptRNA^Tyr) for RnpA functional assays, as well as mature tRNA were synthesized in vitro, as previously described. Each gene was PCR amplified using S. aureus UAMS-1 chromosomal DNA as a template and the corresponding oligonucleotide primer pairs, in which the forward primers contained an RNA polymerase T7 promoter sequence. The following primer pairs were used in this study (T7 promoter underlined): T7-rnpB forward—[…] and rnpB reverse—[…]; T7-ptRNA^Tyr forward—[…] and ptRNA^Tyr reverse—TGGTGGAG GGGGGCAGATTC; T7-spa forward—[…] CGACGTCCAG and spa reverse—[…]. Resulting PCR products were analyzed on a 0.8% agarose gel and purified using the Qiagen QIAquick Gel Extraction kit, according to the manufacturer’s instructions. In vitro transcription was performed using the TranscriptAid T7 High Yield Transcription kit (Fermentas; Burlington, ON, Canada) following manufacturer’s instructions. Following in vitro transcription, the RNA was treated with DNase I for 90 min and re-purified using the Qiagen RNeasy Mini kit. RNA was quantified using a NanoDrop2000 spectrophotometer.\nS.aureus Rnase P activity assays were performed as previously described. Briefly, ptRNA^Tyr and rnpB RNA was denatured by heating to 95 °C for 5 min then slow cooled to room temperature. RNA species were then combined with 2× low salt buffer (50 mM Tris-HCl pH 8.0, 5 mM MgCl2) and incubated for 5 min at 37 °C. Rnase P was reconstituted by mixing an equal molar ratio of His-RnpA and rnpB for 15 min at 37 °C. […] Then, 5 pmol ptRNA^Tyr was added to each reaction and incubated for an additional 30 min at 37 °C. Reactions were stopped with 2× RNA loading dye (Thermo Scientific) and heating to 65 °C for 10 min. Samples were electrophoresed on a 7M urea/8% polyacrylamide gel then stained with 0.5 µg mL^−1 ethidium bromide. The BioRad EZ Gel Doc imaging system was used to visualize the RNA and relative abundance of mature tRNA^Tyr in the DMSO control or in the samples containing compound and analyzed using BioRad Image Lab densitometry software. The percent inhibitory activity of each compound was calculated using the following equation: (% experimental processing/% processing negative control) × 100."}, "[1]": {"test_system": "RnpA-mediated mRNA turnover of spa mRNA", "test": "Cellular mRNA turnover assay (spa mRNA, qRT-PCR after rifampin arrest)", "assay_type": "cell-based, Staphylococcus aureus", "conditions": "0.5X MIC for 30 min, 0 and 5 min post-transcriptional arrest, Figure 3 left", "protocol": "As a more direct measure of whether the antimicrobial effects were RnpA-dependent, studies were performed to measure their inhibition of cellular RnpA-mediated mRNA turnover of spa mRNA. The spa mRNA is a natural substrate of RnpA mRNA degradation, as previously described, and can be utilized for an intracellular readout of inhibition for RnpA-mediated mRNA turnover. To do so, S. aureus cells were treated with a sub-inhibitory concentration of compound (0.5X MIC) then challenged with the antibiotic rifampicin to arrest de novo RNA synthesis. Quantitative RT-PCR was used to measure the cellular titers of spa mRNA at 0 and 5 min post-transcriptional arrest.\nS.aureus RNA half-life measurements were performed as described. […] To inhibit de novo RNA synthesis, rifampin (Alfa Aesar, Haverhill, MA, USA) was added to the culture at a final concentration of 200 µg mL^−1. Half of the culture was immediately removed and combined with an equal volume of ice-cold acetone:ethanol (1:1 v/v). The remainder of the culture was returned to the 37 °C incubator for an additional 5 min, then combined with an equal volume of ice-cold acetone:ethanol (1:1 v/v) and stored at −80 °C.\nCell suspensions in acetone:ethanol were thawed on ice and centrifuged at 1560× g for 10 min at 4 °C. Acetone:ethanol was decanted, and pellets were left to air-dry for 5 min. Cell pellets were resuspended in 500 µL ice-cold TE buffer (10 mM Tris-HCl, pH 8.0, 1mM EDTA) and transferred to FastPrep Lysing Matrix B tubes (MP Biomedicals, Santa Ana, CA). Mixtures were homogenized at 5 m∙s^−1 for 20 s, rested on ice for 5 min, then homogenized again at 4.5 m∙s^−1 for 20 s in a FastPrep-24 instrument. Cell lysates were centrifuged at 16,200× g for 15 min at 4 °C to remove cell debris. Total bacterial RNA and tRNA^Tyr populations were isolated from the supernatant using Qiagen RNeasy Mini kits and miRNeasy kits, respectively, following the manufacturer’s recommendations (Germantown, MD). For qRT-PCR, 2 µg of RNA substrate was treated with 2 units of DNase I (New England Biolabs, Ipswich, MA, USA) for 1 h at 37 °C and re-purified using Qiagen RNeasy Mini kits, following the manufacturer’s instructions. RNA was measured for concentration and quality using a NanoDrop spectrophotometer. Quantabio (Beverly, MA, USA) qScript cDNA Supermix was used to convert 200 ng of RNA into cDNA, following manufacturer’s instructions, which was subsequently amplified using Quantabio SYBR Green Fast Mix following manufacturer’s instructions. Fluorescence was read on the BioRad (Hercules, CA, USA) CFX 96 Connect Real Time Machine. Transcript levels were compared to the internal control 16S rRNA (ΔΔCt) and plotted as fold change compared to the control. The following primer pairs were used in this study for qRT-PCR: spa forward—[…]; spa reverse—[…]; –15 ptRNA^Tyr forward—[…]; tRNA^Tyr reverse—TGGTG GAGGGGGGCAGATTC; 16S rRNA forward—[…]; 16S rRNA reverse—[…]."}},
  "note": "“Also recorded” adds a separate entry of the source.",
  "data": [
    {"smiles": "O=C(Nc1cccc(Cl)c1)c1c(NC(=O)C(F)(F)F)sc2c1CCCCC2", "note": "[RNP0007]", "values": [
      {"measurement": "Inhibition of in vitro RnpA ptRNA processing (in words)", "setting": "RNase P (RnpA + rnpB)", "value": "weakly inhibited"},
      {"measurement": "IC50", "setting": "RNase P (RnpA + rnpB)", "value": 98, "unit": "µM"}
    ]},
    {"smiles": "O=C(Nc1cccc(F)c1)c1c(NC(=O)C(F)(F)F)sc2c1CCCCC2", "note": "[RNP0008]", "values": [
      {"measurement": "Inhibition of in vitro RnpA ptRNA processing (in words)", "setting": "RNase P (RnpA + rnpB)", "value": "only inhibited the ptRNA processing function"},
      {"measurement": "IC50", "setting": "RNase P (RnpA + rnpB)", "value": 78, "unit": "µM"},
      {"measurement": "Inhibition of cellular spa mRNA turnover (in words)", "setting": "[1]", "value": "weakest inhibitors"}
    ]},
    {"smiles": "O=C(Nc1ccc(F)cc1)c1c(NC(=O)C(F)(F)F)sc2c1CCCCC2", "note": "[RNP0009]", "values": [
      {"measurement": "Inhibition of in vitro RnpA ptRNA processing (in words)", "setting": "RNase P (RnpA + rnpB)", "value": "only inhibited the ptRNA processing function"},
      {"measurement": "IC50", "setting": "RNase P (RnpA + rnpB)", "value": 79, "unit": "µM"},
      {"measurement": "Inhibition of cellular spa mRNA turnover (in words)", "setting": "[1]", "value": "weakest inhibitors"}
    ]},
    {"smiles": "Cc1cccc(NC(=O)c2c(NC(=O)C(F)(F)F)sc3c2CCCCC3)c1", "note": "[RNP0010]", "values": [
      {"measurement": "Inhibition of in vitro RnpA ptRNA processing (in words)", "setting": "RNase P (RnpA + rnpB)", "value": "only inhibited the ptRNA processing function"},
      {"measurement": "IC50", "setting": "RNase P (RnpA + rnpB)", "value": 70, "unit": "µM"},
      {"measurement": "Inhibition of cellular spa mRNA turnover (in words)", "setting": "[1]", "value": "strong inhibitor"}
    ]},
    {"smiles": "O=C(Nc1cccc(C(F)(F)F)c1)c1c(NC(=O)C(F)(F)F)sc2c1CCCCC2", "note": "[RNP0011]", "values": [
      {"measurement": "Inhibition of in vitro RnpA ptRNA processing (in words)", "setting": "RNase P (RnpA + rnpB)", "value": "good inhibitory properties"},
      {"measurement": "IC50", "setting": "RNase P (RnpA + rnpB)", "value": 57, "unit": "µM"},
      {"measurement": "Inhibition of cellular spa mRNA turnover (in words)", "setting": "[1]", "value": "moderate inhibitors"}
    ]},
    {"smiles": "O=C(Nc1ccc(C(F)(F)F)cc1)c1c(NC(=O)C(F)(F)F)sc2c1CCCCC2", "note": "[RNP0012]", "values": [
      {"measurement": "Inhibition of in vitro RnpA ptRNA processing (in words)", "setting": "RNase P (RnpA + rnpB)", "value": "good inhibitory properties"},
      {"measurement": "Conversion of precursor tRNA to mature tRNA", "setting": "RNase P (RnpA + rnpB); 0, 50, 250 or 500 µM, urea-PAGE, Figure 2B", "value": "reduced conversion of precursor tRNA to mature tRNA in a dose dependent manner"},
      {"measurement": "IC50", "setting": "RNase P (RnpA + rnpB)", "value": 66, "unit": "µM"},
      {"measurement": "Inhibition of cellular spa mRNA turnover (in words)", "setting": "[1]", "value": "moderate inhibitors; also recorded: significantly reduced RnpA-associated mRNA degradation"}
    ]},
    {"smiles": "O=C(Nc1cccc(F)c1)c1c(NC(=O)C(F)(F)F)sc2c1CCCC2", "note": "[RNP0013]", "values": [
      {"measurement": "IC50", "setting": "RNase P (RnpA + rnpB)", "value": 95, "unit": "µM"}
    ]},
    {"smiles": "O=C(Nc1ccc(F)cc1)c1c(NC(=O)C(F)(F)F)sc2c1CCCC2", "note": "[RNP0014]", "values": [
      {"measurement": "Inhibition of in vitro RnpA ptRNA processing (in words)", "setting": "RNase P (RnpA + rnpB)", "value": "weak effects; also recorded: weak or no inhibitory activity"},
      {"measurement": "IC50", "setting": "RNase P (RnpA + rnpB)", "value": 138, "unit": "µM"},
      {"measurement": "Inhibition of cellular spa mRNA turnover (in words)", "setting": "[1]", "value": "strongest stabilizers of mRNA"}
    ]},
    {"smiles": "O=C(Nc1ccc(C(F)(F)F)cc1)c1c(NC(=O)C(F)(F)F)sc2c1CCCC2", "note": "[RNP0015]", "values": [
      {"measurement": "Inhibition of in vitro RnpA ptRNA processing (in words)", "setting": "RNase P (RnpA + rnpB)", "value": "greatest inhibitory activity; also recorded: good inhibitory properties"},
      {"measurement": "IC50", "setting": "RNase P (RnpA + rnpB)", "value": 46, "unit": "µM"}
    ]},
    {"smiles": "O=C(Nc1cccc(C(F)(F)F)c1)c1c(NC(=O)C(F)(F)F)sc2c1CCCC2", "note": "[RNP0016]", "values": [
      {"measurement": "Inhibition of in vitro RnpA ptRNA processing (in words)", "setting": "RNase P (RnpA + rnpB)", "value": "good inhibitory properties"},
      {"measurement": "IC50", "setting": "RNase P (RnpA + rnpB)", "value": 52, "unit": "µM"},
      {"measurement": "Inhibition of cellular spa mRNA turnover (in words)", "setting": "[1]", "value": "strongest stabilizers of mRNA"}
    ]}
  ]
}
